Numbered stars: 1 amine (or outer) side, 2 acyl side, 3 side chain; on linkers, the order of the positions; unused ones are H or OH. Square brackets hold non-standard residues; d marks the D form. Peptide text beside a SMILES is read from it. X1 = O=C([C@H](Cc1ccc(OP(=O)(O)O)cn1)N[*:1])[*:2]; pY = N[C@@H](Cc1ccc(OP(=O)(O)O)cc1)C(=O)O

For the assay, the target named is T1, Tyrosine-protein phosphatase non-receptor type 1 (Homo sapiens) (UniProt P18031).
T1 sequence (whole entry): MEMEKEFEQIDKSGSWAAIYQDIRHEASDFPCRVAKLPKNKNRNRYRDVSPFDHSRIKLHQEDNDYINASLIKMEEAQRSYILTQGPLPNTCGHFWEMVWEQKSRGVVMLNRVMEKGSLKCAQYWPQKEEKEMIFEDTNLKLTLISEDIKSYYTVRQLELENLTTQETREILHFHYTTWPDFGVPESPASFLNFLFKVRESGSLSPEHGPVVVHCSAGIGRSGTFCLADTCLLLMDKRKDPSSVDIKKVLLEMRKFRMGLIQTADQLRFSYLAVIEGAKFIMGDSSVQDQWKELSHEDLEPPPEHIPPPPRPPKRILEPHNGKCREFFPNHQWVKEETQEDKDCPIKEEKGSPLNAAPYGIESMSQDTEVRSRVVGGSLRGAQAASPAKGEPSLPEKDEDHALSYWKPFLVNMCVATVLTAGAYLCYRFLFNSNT
The assay is described as follows: Catalytic turnover rate was determined.

`CC(=O)N[C@@H](CC(=O)O)C(=O)N[C@@H](C)C(=O)N[C@@H](CC(=O)O)C(=O)N[C@@H](CCC(=O)O)C(=O)N[C@@H](Cc1ccc(OP(=O)(O)O)cn1)C(=O)N[C@@H](CC(C)C)C(N)=O` (Ac-DADE[X1]L-NH2): the k cat came out at 52 s⁻¹. In turn, `CC(=O)N[C@@H](CC(=O)O)C(=O)N[C@@H](C)C(=O)N[C@@H](CC(=O)O)C(=O)N[C@@H](CCC(=O)O)C(=O)N[C@@H](Cc1ccc(OP(=O)(O)O)cc1)C(=O)N[C@@H](CC(C)C)C(N)=O` (Ac-DADE[pY]L-NH2) had a k cat of 68 s⁻¹.

The values above are taken from ChEMBL document CHEMBL1134058, “Phospho-Azatyrosine, a less effective protein-tyrosine phosphatase substrate than phosphotyrosine” (Bioorg Med Chem Lett, 2001).
